*1 amine or outer side, *2 acyl side, *3 side chain or, on linkers, in order; H or OH if unused. Where a SMILES comes first, the peptide text is derived from it. Bridges are numbered along the chain shown (N, C = ends). [ ]: non-standard residue; d: D form. The star is where a group is joined. hTyr(3S-OH,4S-OH,3'-OSO3H) = N[C@H](C(=O)O)[C@H](O)[C@@H](O)c1ccc(O)c(OS(=O)(=O)O)c1; Orn(4R-OH,5R-OH) = O=C([C@H](C[C@@H](O)[C@@H](O)N[*:3])N[*:1])[*:2]; Pro(3S-OH,4S-Me) = C[C@H]1CN[C@H](C(=O)O)[C@H]1O; X1 = CCCCCOc1ccc(-c2cc(-c3ccc(C(=O)*)cc3)no2)cc1; Gln(3R-OH) = NC(=O)C[C@@H](O)[C@H](N)C(=O)O; Hyp = O=C(O)[C@@H]1C[C@@H](O)CN1
Tests used:
[1] = Adverse events, safety analysis set
Procedure: Adverse events, biochemical and hematologic laboratory parameters and survival were assessed for all infants who received at least 1 dose of study drug. Treatment-emergent adverse events (TEAEs), defined as AEs occurring from the first dose of the study drug through 72 hours after the last dose, were summarized by treatment group.

C. parapsilosis [2] = experiment: In vitro susceptibility MIC, EUCAST EDef7.1; assay type: cell-based, Candida parapsilosis; details: baseline isolate
Procedure: (§1) All fungal isolates were identified to the genus and species level using standard techniques. Briefly, each isolate was subcultured in CHROMagar Candida (Becton Dickinson and Company, Sparks, MD) and molecular identification by sequencing of the internal transcribed spacer region and/or 28S ribosomal subunit. In vitro susceptibility testing was performed on all fungal isolates collected during the study to calculate the minimum inhibitory concentrations (MICs) according to Clinical Laboratory Standards Institutes (CLSI) methodology (M27-A3) and European Committee on Antimicrobial Susceptibility Testing (EUCAST) methodology (EDef7.1).[24],[25]

[3] = adults, 100 mg/d (approximately 2 mg/kg); cited from earlier work
Description: AmB-D has been the standard of treatment for neonatal IC in the United States for many years,[7] but nephrotoxicity is a dose-limiting toxicity.[10] […] The use of fluconazole in infants may be limited because of the resistance of some Candida spp., its frequent use as prophylaxis in extremely premature infants, its poor activity against fungal biofilms and the high doses required to reach therapeutic concentrations.[9],[ ...

C. parapsilosis [4] = experiment: In vitro susceptibility MIC, CLSI M27-A3; assay type: cell-based, Candida parapsilosis
Procedure: as §1

[5] = Population PK of MCA, linear 2-compartment model with body weight-based allometric scaling; assay type: in vivo; details: Infants (this study), mean ± SD
Procedure: Up to 3 PK blood samples (≤300 µL) were collected from infants who participated in the PK portion of the study. A population PK approach was used to define the PK profile of MCA. A linear 2-compartment population PK model with body weight–based allometric scaling was developed in neonatal and pediatric patient populations by amending a previous model[19],[26] and including data from the current study in addition to 2 previous phase 1 studies and 1 previous phase 3 study in infants.[20],[27],[28] Individual post hoc estimates of PK parameters, simulated area under the curve (AUC) at steady state and maximum plasma concentration at the end of 2-hour infusion at once-daily dose of MCA 10 mg/kg were derived based on the model.
A population PK model was developed using data from this and 8 other studies (data on file at Astellas). A 2-compartment model with body weight–based allometric scaling and first-order elimination adequately described MCA PK data regardless of age. In this study, PK data were collected from 12 of 30 study participants (Table 2).

[6] = premature and nonpremature infants <2 years, 9 clinical trials; cited from earlier work
Description: There was a slightly greater degree of nephrotoxicity at >25% baseline caused by AmB-D, although AmB-D-induced nephrotoxicity, defined as elevated serum creatinine, in the infant is usually reversible.[37] In understanding the relative tolerability of AmB-D in infants within the neonatal intensive care unit compared with older children, there are several hypotheses, including a greater nephronal reserve or the attention to appropriate hy ...

invasive candidiasis = details: patients <16 years with IC; MCA 2 mg/kg, liposomal amphotericin B 3 mg/kg; cited from earlier work
Procedure: High rates of survival and successful treatment responses to MCA among patients <18 years of age with IC have been reported in prospective, observational studies.[32],[33] Success rates in pediatric studies are similar to the findings of our study in infants. For example, in a pediatric substudy from a randomized, double-blind study comparing MCA (2 mg/kg) with liposomal amphotericin B (3 mg/kg) in patients <16 years of age with IC, the investigators reported similar treatment success rates after MCA (defined as both a clinical and mycologic response at the end of therapy; 73% compared with 76 ...

[7] = system: Candida spp. (invasive candidiasis); experiment: Phase 3 randomized double-blind study, efficacy in infants with proven invasive candidiasis (NCT00815516); assay type: in vivo
Procedure: This was a phase 3, randomized, double-blind, multicenter, parallel-group, noninferiority study (ClinicalTrials.gov identifier: […] The follow-up was performed to capture emergent and recurrent fungal infections, to obtain a final safety evaluation and to check for resolution of those IC episodes that had not resolved by the end of treatment. […] An independent Data Review Panel reviewed and confirmed the diagnosis of IC and evaluated the efficacy outcome for each subject. Drug safety was evaluated by an unblinded Data Safety and Monitoring Board. […] FFS was defined as an infant alive and fungal free with no requirement for continued treatment with alternative antifungal therapy. […] Responses were defined as follows: complete response (resolution of all attributable signs related to fungal infection); partial response (improvement in attributable signs related to the fungal infection); stabilization (minor improvement or no change in attributable signs related to the fungal infection and the infant continued on therapy without deterioration); progression (deterioration in attributable signs related to the fungal infection or death presumably related to fungal infection). […] Persistence was defined by continued isolation or histologic documentation from a normally sterile site. […] Following positive Candida cultures, end-organ dissemination was assessed using abdominal ultrasound and/or computed tomography scanning, echocardiogram, head imaging with ultrasound, magnetic resonance imaging or computed tomography scanning or ophthalmoscopy. An emergent fungal infection was defined as a non-Candida invasive fungal infection detected at any time during the study or any invasive fungal infection detected >96 hours postbaseline involving a Candida spp. other than those detected at baseline.

[8] = irrespective of relatedness to study drug
[9] = possible or probable, as assessed by the investigator

## CCCCCOc1ccc(-c2cc(-c3ccc(C(=O)N[C@H]4C[C@@H](O)[C@@H](O)NC(=O)[C@@H]5[C@@H](O)[C@@H](C)CN5C(=O)[C@H]([C@H](O)CC(N)=O)NC(=O)[C@H]([C@H](O)[C@@H](O)c5ccc(O)c(OS(=O)(=O)O)c5)NC(=O)[C@@H]5C[C@@H](O)CN5C(=O)[C@H]([C@@H](C)O)NC4=O)cc3)no2)cc1 [MCA, micafungin] (X1-[Orn(4R-OH,5R-OH)]T[Hyp][hTyr(3S-OH,4S-OH,3'-OSO3H)][Gln(3R-OH)][Pro(3S-OH,4S-Me)]; lactam 1-C)
[1]; MCA n = 20, AmB-D n = 10
  Early discontinuation of treatment: AEs: 3 (15%) n (%)
  Electrolyte supplementation received: 6 (30%) n (%)
[1]; MedDRA system organ class
  TEAEs: Blood and lymphatic system disorders: 10 (50) n (%)
  TEAEs: General disorders and administration site conditions: 3 (15) n (%)
  TEAEs: Infections and infestations: 11 (55) n (%)
  TEAEs: Investigations: 5 (25) n (%)
  TEAEs: Metabolism and nutrition disorders: 1 (5) n (%)
  TEAEs: Respiratory, thoracic and mediastinal disorders: 0 n (%)
  TEAEs: Skin and subcutaneous tissue disorders: 1 (5) n (%)
  TEAEs: Vascular disorders: 3 (15) n (%)
[1]; all deaths reported from the study
  Deaths: 3 (15) n (%)
[1]; in vivo
  Magnesium supplementation: 3 (15%) n (%)
  Potassium supplementation: 2 (10%) n (%)
[1]; [8]
  TEAE anemia: 9 (45%) n (%)
  TEAE thrombocytopenia: 2 (10%) n (%)
[1]; most common SAE in the MCA group
  SAE anemia: 4 (20%) n (%)
[1]; [9]
  Drug-related TEAEs: 11 (55) n (%)
  Drug-related TEAEs leading to death: 0 n (%)
  Drug-related serious TEAEs: 6 (30) n (%)
[1]; safety analysis set
  Serious TEAEs: 12 (60) n (%)
[1]; safety analysis set, MCA N = 20 (10 mg/kg/d), AmB-D N = 10 (1 mg/kg/d)
  TEAEs: 18 (90) n (%)
C. parapsilosis [2]; persistent infection 1 of 2 in MCA group
  MCA MIC, EUCAST: 1 µg/mL
C. parapsilosis [2]; the other persistent infection in MCA group
  MCA MIC, EUCAST: 0.5 µg/mL
[3]
  Mean exposure (AUC): 100000 ng·h/mL
C. parapsilosis [4]; baseline isolate, persistent infection 1 of 2 in MCA group
  MCA MIC, CLSI: 1 µg/mL
C. parapsilosis [4]; baseline isolate, the other persistent infection in MCA group
  MCA MIC, CLSI: 1 µg/mL
C. parapsilosis [4]; follow-up isolates collected on day 19, both MCA-treated infants
  MCA MIC, CLSI: 1 µg/mL
[5]; N = 12, MCA 10 mg/kg iv, individual post hoc estimates
  CL: 0.068 ± 0.039 (0.022–0.147) L/h
[5]; N = 12, MCA 10 mg/kg iv
  CL: 0.487 ± 0.200 (0.225–0.876) mL/min/kg
  Vss: 0.480 ± 0.159 (0.306–0.799) L/kg
  t1/2: 12.25 ± 2.87 (7.51–16.92) h
[5]; N = 12, simulated at 10 mg/kg once daily, 2-hour infusion
  AUCss: 399.32 ± 163.88 (190.33–742.30) μg·h/mL
[5]; N = 12, simulated at 10 mg/kg, 2-hour infusion
  C2h (steady-state plasma concentration at end of 2-hour infusion): 31.06 ± 10.53 (17.01–49.69) μg/mL
[6]
  Treatment-related TEAEs, patients: 23%
Invasive candidiasis
  Treatment success rate (clinical and mycologic response at end of therapy): 73%
[7]; MCA n = 20, AmB-D n = 10
  Early discontinuation of treatment: lack of efficacy: 1 (5%) n (%)
[7]; at end of study and 1 week after last dose, infants with signs at baseline (MCA 18, AmB-D 10)
  Positive clinical response: 61%
[7]; did not meet primary efficacy end point, MCA n = 20, AmB-D n = 10
  Infants alive at 1 week after last dose but not fungal free: 5 (25%) n (%)

— publication PMC6155365, “A Phase 3 Study of Micafungin Versus Amphotericin B Deoxycholate in Infants With Invasive Candidiasis” (The Pediatric Infectious Disease Journal, 2018)
